In patent US5763404A, “Methods for using LHRH antagonists with low histamine release” (priority 1995, dated 1998):
Starred links: 1 amine or outer side, 2 acyl side, 3 side chain; linkers in the order of their positions; H or OH if unused. Non-standard residues stand in square brackets, D forms with d. Residues, ends and D or L forms follow the SMILES beside them. *: point of attachment. dAla(cis-4-NHCOPyz-cHex) = N[C@H](C[C@H]1CC[C@@H](NC(=O)c2cnccn2)CC1)C(=O)O; X4 = O=C(N[C@H]1CC[C@@H](C[C@@H](N[*:1])C(=O)[*:2])CC1)c1cccnc1; X3 = O=C(N[C@H]1CC[C@H](C[C@@H](N[*:1])C(=O)[*:2])CC1)c1cnccn1; dPhe(3,4-Cl2) = N[C@H](Cc1ccc(Cl)c(Cl)c1)C(=O)O; dPhe(4-Cl) = N[C@H](Cc1ccc(Cl)cc1)C(=O)O; Pyrimidin2yl(4,6-Me2) = Cc1cc(C)nc(*)n1; d2Nal = N[C@H](Cc1ccc2ccccc2c1)C(=O)O; Lys(iPr) = CC(C)NCCCC[C@H](N)C(=O)O; Orn(iPr) = CC(C)NCCC[C@H](N)C(=O)O; Pyrazinecarbonyl = O=C(c1cnccn1)*; d3Pal = N[C@H](Cc1cccnc1)C(=O)O; Nicotinoyl = O=C(c1cccnc1)*; Picolinoyl = O=C(c1ccccn1)*; dOrn = NCCC[C@@H](N)C(=O)O; Orn = NCCC[C@H](N)C(=O)O

Tested on: anaesthesized rats
Assay: wheal test, intradermal injection
Assay type: in vivo, rat
Set-up: Wheal (wheal response): unit not given here
Conditions: for Wheal Area / Wheal: 10 ug peptide intradermally; for Wheal: Table I; for Wheal (wheal response): Table XIV and text, unit not given
In short: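 Anaesthetized rats given intradermal injection of 10 ug peptide in 100 ul saline; area of the wheal calculated from its diameter.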

Row | Wheal Area | Wheal | Wheal (wheal response) | Structure (SMILES)
1 | 129.6 ± 8.8 mm^2 /10 μg | – | – | CC(=O)N[C@H](Cc1ccc2ccccc2c1)C(=O)N[C@H](Cc1ccc(Cl)cc1)C(=O)N[C@H](Cc1cccnc1)C(=O)N[C@@H](CO)C(=O)N[C@@H](CCCCNC(=O)c1cccnc1)C(=O)N[C@H](C[C@H]1CC[C@H](NC(=O)c2cnccn2)CC1)C(=O)N[C@@H](CC(C)C)C(=O)N[C@@H](CCCCNC(C)C)C(=O)N1CCC[C@H]1C(=O)N[C@H](C)C(N)=O [compound 25805] (Ac-[d2Nal][dPhe(4-Cl)][d3Pal]SK(Nicotinoyl)[X3]L[Lys(iPr)]P[dA]-NH2)
2 | 116.2 ± 3.7 mm^2 /10 μg | – | – | CC(=O)N[C@H](Cc1ccc(Cl)c(Cl)c1)C(=O)N[C@H](Cc1ccc(Cl)cc1)C(=O)N[C@H](Cc1cccnc1)C(=O)N[C@@H](CO)C(=O)N[C@@H](CCCCNC(=O)c1ccccn1)C(=O)N[C@H](CCCCNC(=O)c1ccccn1)C(=O)N[C@@H](CC(C)C)C(=O)N[C@@H](CCCCNC(C)C)C(=O)N1CCC[C@H]1C(=O)N[C@H](C)C(N)=O [compound 26100] (Ac-[dPhe(3,4-Cl2)][dPhe(4-Cl)][d3Pal]SK(Picolinoyl)[dK](Picolinoyl)L[Lys(iPr)]P[dA]-NH2)
3 | – | 92.2 ± 2.9 mm^2 /10 | – | CC(=O)N[C@H](Cc1ccc2ccccc2c1)C(=O)N[C@H](Cc1ccc(Cl)cc1)C(=O)N[C@H](Cc1cccnc1)C(=O)N[C@@H](CO)C(=O)N[C@@H](Cc1ccc(O)cc1)C(=O)N[C@H](CCCCNC(=O)c1cccnc1)C(=O)N[C@@H](CC(C)C)C(=O)N[C@@H](CCCNC(C)C)C(=O)N1CCC[C@H]1C(=O)N[C@H](C)C(N)=O [compound 24756] (Ac-[d2Nal][dPhe(4-Cl)][d3Pal]SY[dK](Nicotinoyl)L[Orn(iPr)]P[dA]-NH2)
4 | – | 113.2 mm^2 /10 | – | CC(=O)N[C@H](Cc1ccc2ccccc2c1)C(=O)N[C@H](Cc1ccc(Cl)cc1)C(=O)N[C@H](Cc1ccc(O)cc1)C(=O)N[C@@H](CO)C(=O)N[C@@H](CCCNC(=N)N)C(=O)N[C@H](CCCCNC(=O)c1cccnc1)C(=O)N[C@@H](CC(C)C)C(=O)N[C@@H](CCCNC(=N)N)C(=O)N1CCC[C@H]1C(=O)N[C@H](C)C(N)=O [compound 24446] (Ac-[d2Nal][dPhe(4-Cl)][dY]SR[dK](Nicotinoyl)LRP[dA]-NH2)
5 | – | 165.2 mm^2 /10 | – | CC(=O)N[C@H](Cc1ccc2ccccc2c1)C(=O)N[C@H](Cc1ccc(Cl)cc1)C(=O)N[C@H](Cc1cccnc1)C(=O)N[C@@H](CO)C(=O)N[C@@H](CCCCNC(=O)c1cccnc1)C(=O)N[C@H](CCCNc1nc(C)cc(C)n1)C(=O)N[C@@H](CC(C)C)C(=O)N[C@@H](CCCCNC(C)C)C(=O)N1CCC[C@H]1C(=O)N[C@H](C)C(N)=O [compound 25334] (Ac-[d2Nal][dPhe(4-Cl)][d3Pal]SK(Nicotinoyl)[dOrn](Pyrimidin2yl(4,6-Me2))L[Lys(iPr)]P[dA]-NH2)
6 | 104.3 ± 10.5 mm^2 /10 μg | – | – | CC(=O)N[C@H](Cc1ccc2ccccc2c1)C(=O)N[C@H](Cc1ccc(Cl)cc1)C(=O)N[C@H](Cc1cccnc1)C(=O)N[C@@H](CO)C(=O)N[C@@H](CCCCNC(=O)c1cccnc1)C(=O)N[C@H](CCCCNC(=O)c1cnccn1)C(=O)N[C@@H](CC(C)C)C(=O)N[C@@H](CCCNC(C)C)C(=O)N1CCC[C@H]1C(=O)N[C@H](C)C(N)=O [compound 25991] (Ac-[d2Nal][dPhe(4-Cl)][d3Pal]SK(Nicotinoyl)[dK](Pyrazinecarbonyl)L[Orn(iPr)]P[dA]-NH2)
7 | 116.2 ± 3.2 mm^2 /10 μg | – | – | CC(=O)N[C@H](Cc1ccc2ccccc2c1)C(=O)N[C@H](Cc1ccc(Cl)cc1)C(=O)N[C@H](Cc1cccnc1)C(=O)N[C@@H](CO)C(=O)N[C@@H](CCCCNC(=O)c1ccccn1)C(=O)N[C@H](C[C@H]1CC[C@@H](NC(=O)c2cnccn2)CC1)C(=O)N[C@@H](Cc1ccccc1)C(=O)N[C@@H](CCCCNC(C)C)C(=O)N1CCC[C@H]1C(=O)N[C@H](C)C(N)=O [compound 26366] (Ac-[d2Nal][dPhe(4-Cl)][d3Pal]SK(Picolinoyl)[dAla(cis-4-NHCOPyz-cHex)]F[Lys(iPr)]P[dA]-NH2)
8 | – | 122.8 ± 5.7 mm^2 /10 | – | CC(=O)N[C@H](Cc1ccc2ccccc2c1)C(=O)N[C@H](Cc1ccc(Cl)cc1)C(=O)N[C@H](Cc1cccnc1)C(=O)N[C@@H](CO)C(=O)N[C@@H](CCCCNC(=O)c1cccnc1)C(=O)N[C@H](CCCCNC(=O)c1cccnc1)C(=O)N[C@@H](CC(C)C)C(=O)N[C@@H](CCCCNC(=O)c1cccnc1)C(=O)N1CCC[C@H]1C(=O)N[C@H](C)C(N)=O [compound 24596] (Ac-[d2Nal][dPhe(4-Cl)][d3Pal]SK(Nicotinoyl)[dK](Nicotinoyl)LK(Nicotinoyl)P[dA]-NH2)
9 | – | 113.6 mm^2 /10 | – | CC(=O)N[C@H](Cc1ccc2ccccc2c1)C(=O)N[C@H](Cc1ccc(Cl)cc1)C(=O)N[C@H](Cc1cccnc1)C(=O)N[C@@H](CO)C(=O)N[C@@H](CCCCNC(=O)c1cccnc1)C(=O)N[C@H](C[C@H]1CC[C@@H](NC(=O)c2cccnc2)CC1)C(=O)N[C@@H](CC(C)C)C(=O)N[C@@H](CCCCNC(C)C)C(=O)N1CCC[C@H]1C(=O)N[C@H](C)C(N)=O [compound 25648] (Ac-[d2Nal][dPhe(4-Cl)][d3Pal]SK(Nicotinoyl)[X4]L[Lys(iPr)]P[dA]-NH2)
10 | 71.0 ± 4.3 mm^2 /10 μg | – | – | CC(=O)N[C@H](Cc1ccc2ccccc2c1)C(=O)N[C@H](Cc1ccc(Cl)cc1)C(=O)N[C@H](Cc1c[nH]c2ccccc12)C(=O)N[C@@H](CO)C(=O)N[C@@H](CCCCNC(=O)c1ccccn1)C(=O)N[C@H](CCCCNC(=O)c1ccccn1)C(=O)N[C@@H](CC(C)C)C(=O)N[C@@H](CCCCNC(C)C)C(=O)N1CCC[C@H]1C(=O)N[C@H](C)C(N)=O [compound 26177] (Ac-[d2Nal][dPhe(4-Cl)][dW]SK(Picolinoyl)[dK](Picolinoyl)L[Lys(iPr)]P[dA]-NH2)
11 | 127.8 ± 4.9 mm^2 /10 μg | – | 127.8 ± 4.9 | CC(=O)N[C@H](Cc1ccc2ccccc2c1)C(=O)N[C@H](Cc1ccc(Cl)cc1)C(=O)N[C@H](Cc1cccnc1)C(=O)N[C@@H](CO)C(=O)N[C@@H](CCCCNC(=O)c1ccccn1)C(=O)N[C@H](C[C@H]1CC[C@@H](NC(=O)c2cnccn2)CC1)C(=O)N[C@H](C(=O)N[C@@H](CCCCNC(C)C)C(=O)N1CCC[C@H]1C(=O)N[C@H](C)C(N)=O)C(C)C [compound 26325] (Ac-[d2Nal][dPhe(4-Cl)][d3Pal]SK(Picolinoyl)[dAla(cis-4-NHCOPyz-cHex)]V[Lys(iPr)]P[dA]-NH2)
12 | 113.0 ± 0 mm^2 /10 μg | – | 113.0 ± 0 | CC(=O)N[C@H](Cc1ccc2ccccc2c1)C(=O)N[C@H](Cc1ccc(Cl)cc1)C(=O)N[C@H](Cc1cccnc1)C(=O)N[C@@H](CO)C(=O)N[C@@H](CCCCNC(=O)c1ccccn1)C(=O)N[C@H](CCCCNC(=O)c1ccccn1)C(=O)N[C@@H](CC(C)C)C(=O)N[C@@H](CCCNC(C)C)C(=O)N1CCC[C@H]1C(=O)N[C@H](C)C(N)=O [compound 25933] (Ac-[d2Nal][dPhe(4-Cl)][d3Pal]SK(Picolinoyl)[dK](Picolinoyl)L[Orn(iPr)]P[dA]-NH2)
13 | – | 113.6 mm^2 /10 | – | CC(=O)N[C@H](Cc1ccc2ccccc2c1)C(=O)N[C@H](Cc1ccc(Cl)cc1)C(=O)N[C@H](Cc1cccnc1)C(=O)N[C@@H](CO)C(=O)N[C@@H](CCCNC(=O)c1cccnc1)C(=O)N[C@H](CCCCNC(=O)c1cccnc1)C(=O)N[C@@H](CC(C)C)C(=O)N[C@@H](CCCNC(C)C)C(=O)N1CCC[C@H]1C(=O)N[C@H](C)C(N)=O [compound 25333] (Ac-[d2Nal][dPhe(4-Cl)][d3Pal]S[Orn](Nicotinoyl)[dK](Nicotinoyl)L[Orn(iPr)]P[dA]-NH2)
